One may read the Km as the concentration of substrate that gives half-maximal velocity.

The target in data set [1] is T1, human OCT2 (Homo sapiens, UniProt O15244).
T1 sequence (O15244 1-555): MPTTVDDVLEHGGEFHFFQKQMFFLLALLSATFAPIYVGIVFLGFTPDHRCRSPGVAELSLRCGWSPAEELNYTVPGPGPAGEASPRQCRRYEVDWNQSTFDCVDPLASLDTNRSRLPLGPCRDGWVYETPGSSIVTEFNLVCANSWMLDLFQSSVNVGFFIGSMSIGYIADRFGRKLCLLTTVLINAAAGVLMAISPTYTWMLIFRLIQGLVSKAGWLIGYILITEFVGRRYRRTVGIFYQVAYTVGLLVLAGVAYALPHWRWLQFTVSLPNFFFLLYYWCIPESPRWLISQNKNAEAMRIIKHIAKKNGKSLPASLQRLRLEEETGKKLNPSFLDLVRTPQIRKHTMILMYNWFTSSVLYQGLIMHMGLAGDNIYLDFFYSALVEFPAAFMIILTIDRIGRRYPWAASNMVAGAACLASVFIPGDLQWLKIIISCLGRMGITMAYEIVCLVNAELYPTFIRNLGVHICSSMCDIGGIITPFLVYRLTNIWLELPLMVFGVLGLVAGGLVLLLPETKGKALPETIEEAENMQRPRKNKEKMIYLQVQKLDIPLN
In words: Uptake assay in HEK-OCT2 vs HEK-VC cells. Format: in vitro ADME. The arrangement: expressed in transfected cells; host or cells: HEK293 (HEK-OCT2). How it is done: (§1) Transport experiments were performed 48 hours after seeding.
(§2) The intracellular background of all 5 compounds in HEK cells at the beginning of the uptake experiments was investigated 48 hours after seeding without incubation with transport buffer (ie, 0 minutes). […] Then, cells were lysed with ice-cold 80% MeOH containing the aforementioned recovery standards. In addition, the impact of a 5-minute incubation period with transport buffer without added substance was investigated.

The target of data set [2] is T2, MATE1 (Homo sapiens, UniProt Q96FL8).
T2 sequence (Q96FL8 1-570): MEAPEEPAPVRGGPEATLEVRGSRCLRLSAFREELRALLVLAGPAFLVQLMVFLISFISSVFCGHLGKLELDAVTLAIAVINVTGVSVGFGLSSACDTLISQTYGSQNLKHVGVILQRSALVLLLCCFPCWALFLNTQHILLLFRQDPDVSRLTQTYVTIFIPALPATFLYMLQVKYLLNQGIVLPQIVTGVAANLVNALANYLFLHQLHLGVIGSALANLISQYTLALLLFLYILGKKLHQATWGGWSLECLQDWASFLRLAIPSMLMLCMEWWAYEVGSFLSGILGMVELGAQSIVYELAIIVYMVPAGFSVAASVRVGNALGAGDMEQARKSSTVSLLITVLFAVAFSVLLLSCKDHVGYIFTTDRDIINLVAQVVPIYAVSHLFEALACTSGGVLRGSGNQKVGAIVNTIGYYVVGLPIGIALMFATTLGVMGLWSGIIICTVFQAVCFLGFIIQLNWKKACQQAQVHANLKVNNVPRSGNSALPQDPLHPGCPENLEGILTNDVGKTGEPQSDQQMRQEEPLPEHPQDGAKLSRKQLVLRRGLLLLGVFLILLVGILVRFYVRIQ
Kind of data set: Uptake assay in HEK-MATE1 vs HEK-VC cells (pH 8.0). As to conditions: 0 minutes and 5 minutes without added substance. How it is done: as §1, §2

Substrate in data set [3]: NCCc1c[nH]c2ccc(O)cc12

Turning to `N=C(N)NCCCC(=O)O` [4-Guanidinobutanoic acid, 4-guanidinobutanoic acid], the “Intracellular background in HEK-OCT2 cells compared to HEK-VC cells” value is reported as “significantly higher” in data set [1] (0 minutes, without added substance) and “reduced to the amount in HEK-VC cells” in data set [1] (5 minutes in transport buffer without added substance). Also, the “Intracellular background in HEK-MATE1 cells compared to HEK-VC cells” value in data set [2] is “significantly lower”.

B1: human OCT2 (Homo sapiens) (protein)
chain: T1 sequence (O15244 1-555)
In the case of B1, in data set [3], the Michaelis-Menten constant (Km) stood at 412.0 ± 143.6 µM.

Values taken from paper PMC12799524, “Putative new biomarkers for renal transporter-mediated drug-drug interactions: Characterization as substrates of organic cation transporter 2, multidrug and toxin extrusion protein 1, and other important drug transporters” (Drug Metabolism and Disposition, 2025).
